Biological target: T1, murine SR-BI (Mus musculus, UniProt Q61009)
T1 construct: expressed in transfected cells; host or cells: ldlA-7 (LDL receptor deficient Chinese hamster ovary cells)
T1 sequence (Q61009 1-509): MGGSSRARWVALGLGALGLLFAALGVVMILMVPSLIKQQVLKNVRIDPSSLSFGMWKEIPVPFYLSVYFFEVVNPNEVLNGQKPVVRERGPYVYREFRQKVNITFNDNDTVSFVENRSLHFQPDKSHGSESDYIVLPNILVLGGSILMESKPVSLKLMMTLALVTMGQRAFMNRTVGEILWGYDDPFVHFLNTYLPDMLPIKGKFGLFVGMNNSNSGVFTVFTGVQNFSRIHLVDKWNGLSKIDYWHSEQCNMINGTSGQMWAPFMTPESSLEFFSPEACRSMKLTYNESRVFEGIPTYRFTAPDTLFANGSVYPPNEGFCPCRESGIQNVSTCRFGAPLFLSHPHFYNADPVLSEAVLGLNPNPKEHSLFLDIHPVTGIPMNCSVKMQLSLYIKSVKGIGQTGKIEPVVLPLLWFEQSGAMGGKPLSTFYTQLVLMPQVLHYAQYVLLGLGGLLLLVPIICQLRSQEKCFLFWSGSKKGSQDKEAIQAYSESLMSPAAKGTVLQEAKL
Experiment: Uptake of DiI from DiI-HDL by ldlA[mSR-BI] cells (high throughput screen and concentration dependence)
Assay type: cell-based
Details: DiI uptake from DiI-HDL, compounds at nominal 10 micromolar, ldlA[mSR-BI] cells

ENDOHDL Test 1 | ENDOHDL Test 2 | Compound
0.67 | 0.6 | Clc1ccc(N2CCC/C2=N\c2c3c(nc4ccccc24)N(c2ccccc2)CC3)cc1Cl [MIT 9952-305]
0.7 | 0.68 | C/C(=N\NC(N)=S)c1ccc[nH]1 [MIT 9952-309]
0.55 | 0.54 | O=C(CSC1=NCCN1)Nc1ccccc1 [MIT 9952-314]
0.51 | 0.53 | CCOC(=O)C1=C(c2ccc(Cl)cc2)C(=O)c2ccccc2C1=O [MIT 9952-315]
1.13 | 1.17 | O=C(O)c1cc(C(=O)O)nc(C(=O)O)c1 [MIT 9952-319]
0.54 | 0.83 | CCOc1ccc2nc3cc(/N=N/c4ccc(N)nc4N)ccc3c(N)c2c1 [MIT 9952-320]
0.79 | 0.86 | Cc1cc(O)nc2cc3oc4ccccc4c3cc12 [MIT 9952-322]
0.46 | 0.63 | Cc1ccsc1/C=N/NC(=O)c1cccc([N+](=O)[O-])c1 [MIT 9952-323]
0.55 | 0.56 | O=C(Nc1ccc(Oc2ccc(Cl)c3cccnc23)c(Cl)c1)c1ccc([N+](=O)[O-])cc1 [MIT 9952-324]
0.56 | 0.49 | O=C(NC(NC(=S)Nc1cccc2ccccc12)C(Cl)(Cl)Cl)c1cccc([N+](=O)[O-])c1 (stereo not shown) [MIT 9952-325]
0.55 | 0.53 | NC(=O)N/N=C/c1ccc(-c2ccc([N+](=O)[O-])cc2)o1 [MIT 9952-326]
0.4 | 0.45 | O=C(NC(NC(=S)Nc1cccc([N+](=O)[O-])c1)C(Cl)(Cl)Cl)C(c1ccccc1)c1ccccc1 (stereo not shown) [MIT 9952-327]
0.57 | 0.53 | O=C(NNC(=O)c1cccc2ccccc12)c1ccc(NC(=O)c2cccc3ccccc23)cc1 [MIT 9952-329]
0.59 | 0.56 | CCn1c2ccccc2c2cc(/C=N/NC(N)=S)ccc21 [MIT 9952-330]
0.63 | 0.35 | CC(C)(C)c1ccc(C(=O)Nc2cccc(NC(=O)c3cccc([N+](=O)[O-])c3)c2)cc1 [MIT 9952-331]
0.69 | 0.67 | Cc1ccc(NC(=S)NC(NC(=O)c2ccccc2Cl)C(Cl)(Cl)Cl)cc1 (stereo not shown) [MIT 9952-332]
0.56 | 0.59 | C/C(CCS(=O)(=O)c1ccc(C)cc1)=N\NC(N)=S [MIT 9952-333]
0.57 | 0.55 | Nc1ccc(C(=O)Nc2ccc(-c3nc4ccc(NC(=O)c5ccc(N)cc5)c(Cl)c4[nH]3)cc2Cl)cc1 [MIT 9952-334]
0.57 | 0.49 | COc1ccc2c(c1)c(C(C)=O)c(C)n2-c1ccccc1 [MIT 9952-335]
0.54 | 0.58 | O=C(NC(NC(=S)Nc1ccc2ccccc2c1)C(Cl)(Cl)Cl)c1cccc([N+](=O)[O-])c1 (stereo not shown) [MIT 9952-336]
0.6 | 0.57 | O=C(Nc1cccc(NC(=O)c2ccccc2Cl)c1)c1cccc([N+](=O)[O-])c1 [MIT 9952-337]
0.61 | 0.6 | COc1ccc([N+](=O)[O-])cc1NC(=O)c1ccccc1 [MIT 9952-338]
0.61 | 0.51 | Nc1cc2cccnc2c2ncccc12 [MIT 9952-341]

Compound | ENDOHDL Test 1 | ENDOHDL Test 2
Br.Oc1c(Br)cccc1CN(Cc1cc(Br)cc(Br)c1O)C1CCCCC1 [MIT 9952-316] | 0.71 | 0.72
NCC[Se][Se]CCN [MIT 9952-318] | 0.67 | 0.81
O=C(Nc1ccc(-c2nc3cc(NC(=O)c4ccccc4[N+](=O)[O-])ccc3o2)cc1)c1ccccc1[N+](=O)[O-] [MIT 9952-339] | 0.58 | 0.54

From US20040171073A1, “Compounds for modulation of cholesterol transport” (Massachusetts Institute of Technology, priority 2002, published 2004)
